System: soybean rust fungus (Phakopsora pachyrhizi)
Assay: Test Example 7: soybean rust control, foliar spray on soybean
Type: in vivo
Details: 200 ppm sprayed on soybean (KUROSENGOKU); inoculated after 2 days; assessed after 3 + 14 days

CON=C(C)c1cccc(OCc2c(C)cccc2-n2nnn(C)c2=O)n1 [compound 44] was tested, and the “area of lesion on the treated plant relative to that on an untreated plant” value was no more than 30%.
